According to patent US20250361217A1, “FATTY ACID COMPOUNDS” (University of Pittsburgh - Of the Commonwealth System of …, priority 2022, published 2025):

Biological target: T1, ACLY (Mus musculus, UniProt Q91V92)
T1 construct: Proteins were extracted from the liver powder (50 mg) with 1 mL of phosphate-buffered saline; from tissue; host or cells: liver of male C57BL/6J mice (HFD, treated in vivo with vehicle or 11U3-2M)
T1 sequence (Q91V92 1-1091): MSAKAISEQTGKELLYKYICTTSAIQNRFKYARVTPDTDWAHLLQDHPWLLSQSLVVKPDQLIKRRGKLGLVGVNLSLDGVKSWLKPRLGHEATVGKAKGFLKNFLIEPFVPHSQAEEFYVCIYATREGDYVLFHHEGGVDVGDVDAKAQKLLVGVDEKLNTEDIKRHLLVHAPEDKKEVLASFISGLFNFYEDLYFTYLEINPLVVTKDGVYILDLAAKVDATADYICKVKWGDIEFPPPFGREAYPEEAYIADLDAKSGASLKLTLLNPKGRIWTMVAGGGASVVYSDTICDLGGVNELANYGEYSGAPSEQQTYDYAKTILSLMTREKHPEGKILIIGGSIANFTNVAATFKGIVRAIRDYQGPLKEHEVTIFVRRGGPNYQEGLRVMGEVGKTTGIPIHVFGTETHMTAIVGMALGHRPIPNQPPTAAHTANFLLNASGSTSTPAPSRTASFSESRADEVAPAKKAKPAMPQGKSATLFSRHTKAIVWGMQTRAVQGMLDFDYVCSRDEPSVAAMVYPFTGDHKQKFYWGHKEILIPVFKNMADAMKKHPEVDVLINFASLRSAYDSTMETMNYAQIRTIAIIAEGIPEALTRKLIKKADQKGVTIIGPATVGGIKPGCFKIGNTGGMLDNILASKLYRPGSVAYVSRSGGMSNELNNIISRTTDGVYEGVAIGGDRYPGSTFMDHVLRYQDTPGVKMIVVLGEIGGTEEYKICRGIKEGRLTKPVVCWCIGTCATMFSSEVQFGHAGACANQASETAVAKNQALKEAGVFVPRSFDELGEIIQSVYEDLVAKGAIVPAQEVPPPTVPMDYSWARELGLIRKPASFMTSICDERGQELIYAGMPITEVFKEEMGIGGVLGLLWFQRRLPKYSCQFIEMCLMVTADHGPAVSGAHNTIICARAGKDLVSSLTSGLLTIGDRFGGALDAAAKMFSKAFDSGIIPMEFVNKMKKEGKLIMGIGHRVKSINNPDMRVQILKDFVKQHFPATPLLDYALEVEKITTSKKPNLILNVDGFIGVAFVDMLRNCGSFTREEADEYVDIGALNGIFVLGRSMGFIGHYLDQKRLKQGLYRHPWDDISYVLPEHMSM
Assay: Thermal shift assay of liver proteins, ACLY
Assay type: binding, mice
Protocol: The liver samples (50 mg) were homogenized and vortexed in ice-cold RIPA buffer containing phosphatase (Fisher Scientific, #PIA32957) and protease (Fisher Scientific, #PIA32953) inhibitor cocktails. Protein concentration was determined using a […] (Pierce). Protein lysates were mixed with LDS Sample Buffer (1:4) and heated for 2 min at 95° C. The lysates were then loaded and electrophoresed on a 10% Tris-Glycine eXtended (BioRad, Criterion #5671034). The proteins were electrophoretically transferred to a PVDF membrane (BioRad, #1620177), and the transfer was confirmed by staining the membrane with 0.1% Ponceau S solution (Sigma-Aldrich, #6226-79-5). The membrane was then blocked for 90 min at RT with 5% nonfat dry milk (LabScientific) or 5% BSA (MilliporeSigma) in TBS-T (tris buffered saline+0.1% Tween 20 [Thermo Fisher Scientific]). […] Quantitative densitometric analysis was performed using Image Lab software (Bio-Rad).
Thermal Shift Assay Proteins were extracted from the liver powder (50 mg) with 1 mL of phosphate-buffered saline (PBS—Gibco, Paisley, UK) containing phosphatase (Fisher Scientific, #PIA32957) and protease (Fisher Scientific, #PIA32953) inhibitors. […] The Supernatants were transferred to new tubes and analyzed by western blot as described above.

ACLY thermal stability (full cohorts, HFD+11U3-2M, higher temperature (52, 53.5, 55° C.)): greatly increased
ACLY thermal stability compared to veh (one mouse per group, 52, 53.5 and 55° C.): higher stability
Compound: CCCc1ccc(CCCCCCCCCC(C)(C)C(=O)O)o1 [11U3-2M, 2,2-Dimethyl-11-(5-propylfuran-2-yl)undecanoic acid]
